Data: patent publication US20110189149A1, “New Uses of Lactic Acid Bacteria and Bifidobacteria” (priority 2008, published 2011)

Assay: Intraperitoneal insulin sensitivity test (IPIST)
Format: in vivo, mice
Conditions: fasted 16 hours, 0.5 IU/kg intraperitoneal, after 30 minutes
Protocol: Nineteen weeks after the beginning of the study, 5 mice in each group (control diet and HFD) were weighed and subjected to an intraperitoneal insulin sensitivity test (IPIST, the protocol of which is detailed below) to check the insulin resistance of the mice. At week 20, glycaemia tests, the protocol of which is detailed below, were performed. Just after the end of these tests, mice received daily 10^9 CFU of Lactobacillus acidophilus NCFM/mouse/day by oral gavage, for 3 weeks. At week 23, animals were sacrificed after weighing and after determination of glycaemia.
Mice were fasted for 16 hours and received an intraperitoneal injection of human recombinant insulin (0.5 International Units/kg body weight); Actrapid®, Novo-Nordisk, Bagsvaerd, Denmark). Blood glucose was assayed immediately before and at 15, 30, 45, and 60 minutes after injection using a digital glucometer (Medisense Optium, Abbott, Rungis, France).

Substance: insulin: human recombinant insulin (Actrapid, Novo-Nordisk) injected intraperitoneally in the IPIST test
- decrease of glycaemia after insulin injection (control diet group): around 70%
- decrease of glycaemia after insulin injection (high-fat diet group): around 45%
